Patent US8815879B2, “Substituted 4-(selenophen-2(or-3)-ylamino)pyrimidine compounds and methods of use thereof” (Kasina Laila Innova Pharmaceuticals Private Limited, priority 2010, dated 2014)
“Also recorded” adds a separate entry of the source. Structures can show the parent of a compound that is named as a salt.

Columns and labels:
[1] = test system: human lung carcinoma A549 cells; test: MTT based cell proliferation assay, A549; conditions: for inhibition at 10 µg/mL / IC50: Homo sapiens, A549, 72 h; for inhibition at 10 µg/mL: read-out: Cell Proliferation Inhibition in A549 (Lung carcinoma), % at highest screening dose; for IC50: read-out: Cell Proliferation Inhibition in A549 (Lung carcinoma), IC50
[2] = test system: human colorectal carcinoma HT29 cells; test: MTT based cell proliferation assay, HT29; conditions: for inhibition at 10 µg/mL / IC50: Homo sapiens, HT-29, 72 h; for inhibition at 10 µg/mL: read-out: Cell Proliferation Inhibition in HT29 (Colon carcinoma), % at highest screening dose; for IC50: read-out: Cell Proliferation Inhibition in HT29 (Colon carcinoma), IC50
[3] = test system: human prostate DU145 cells; test: MTT based cell proliferation assay, DU145; conditions: for inhibition at 10 µg/mL / IC50: Homo sapiens, DU-145, 72 h; for inhibition at 10 µg/mL: read-out: Cell Proliferation Inhibition in DU145 (Prostate carcinoma), % at highest screening dose; for IC50: read-out: Cell Proliferation Inhibition in DU145 (Prostate carcinoma), IC50
[4] = test system: HepG2 (Hepatocellular Carcinoma); test: cells; assay type: cell-based; conditions: for IC50: Homo sapiens, HepG2, MTT, read-out: Cell proliferation inhibition (IC50) in HepG2 (Hepatocellular Carcinoma); for potency compared to Iressa, HepG2: ratio of IC50 values
Procedure: (§1) MTT [3-(4,5-dimethylthiazol-2-yl)-2,5-diphenyltetrazolium bromide] incorporation based cell proliferation assay was performed using standard procedure. […] The assay was carried out according to the instructions provided by the vendor. […] Vehicle control culture wells received only a maximum of 0.5% DMSO. Thereafter, 0.5 mg/ml of MTT reagent was added to each well and the microplate was incubated further for 4 h at 37° C. in presence of 5% CO2. Finally, the cells were solubilized by adding solubilizing solution and allowed to incubate at 37° C. overnight. After complete solubilization of the formazan crystals the absorbance was read at 540 nm in a microplate reader (BioRad, USA).
(§2) The evaluation of cell proliferation inhibitory activities of the compounds was done in two phases—(1) Screening, and (2) half-maximal inhibitory concentration (IC50) determination. In the screening phase, the cells were treated with three different concentrations e.g. 1, 5 and 10 μg/ml.

[5] = test system: human breast carcinoma (estrogen receptor negative) MDA-MB-231 cells; test: cells; assay type: cell-based; conditions: for IC50: Homo sapiens, MDA-MB-231, MTT, read-out: Cell proliferation inhibition (IC50) in MDA-MB-231 (Breast Carcinoma); for potency compared to Iressa, MDA-MB-231: ratio of IC50 values
Procedure: as §1, §2

[6] = test system: human cervical carcinoma HeLa cells; test: cells; assay type: cell-based; conditions: for IC50: Homo sapiens, HeLa, MTT, read-out: Cell proliferation inhibition (IC50) in HeLa (Cervical Carcinoma); for potency compared to Iressa, HeLa: ratio of IC50 values
Procedure: as §1, §2

[7] = test system: Human umbilical vein endothelial cells (HUVEC); test: In vitro endothelial capillary formation assay; assay type: cell-based; conditions: HUVEC on Cultrex, 10 ng/ml FGF, Compound 27 at 0.5, 1.0, 2.5 and 5 μg/ml, 16 h
Procedure: Human umbilical vein endothelial cells (HUVECs) were laid on Cultrex coated plates in presence of either 10 ng/ml human recombinant Fibroblast Growth Factor (FGF) alone (B) or concomitantly with Compound 27 at 0.5, 1.0, 2.5 and 5 μg/ml C, D, E, and F, respectively. The cells in presence of treatments were allowed to form endothelial capillary tubes for 16 h at 37° C. Panel A represents capillary-like endothelial tube formation in 0.1% DMSO treated vehicle control wells.
In vitro capillary formation assay was performed with Human umbilical vein endothelial cells (HUVEC), cultured on 10 mg/ml basement membrane extract (BME—Cultrex®, R&D Systems, USA) bed. Four hundred microliters of Cultrex was coated at 4° C. in each well of 24-well culture plate and allowed to gel at 37° C. for 1 h. HUVECs were plated at a density of 1×10^5 cells per well with 400 μl of EGM-2 medium (Lonza Walkersville Inc. Walkersville, Md.). The cells were then treated with either 10 ng/ml of Human recombinant Fibroblast Growth Factor (FGF, R&D Systems, Minneapolis, Minn.)) alone or concurrently with different concentrations of Compound 27 for 16 hours. Vehicle control cultures received only 0.1% DMSO. Pictures were taken under a Nikon Eclipse TS 100 microscope equipped with a Nikon Coolpix camera. […] In contrast, FGF promoted human endothelial capillary formation in vitro (FIG. 1).

Question: Which melting point does the source give for `CSc1cc2ncnc(Nc3cc(C(C)(C)C)[se]c3C(N)=O)c2s1` [Compound 14, 3-(6-(methylthio)thiopheno[3,2-d]pyrimidin-4-ylamino)-5-tert-butyl-selenophene-2-carboxamide] here?
Answer: 260 to 262 °C

Question: What about the inhibition at 10 µg/mL [1] of the same molecule?
Answer: 3.54%

Question: And the inhibition at 10 µg/mL [2]?
Answer: 53.5%

Question: And the inhibition at 10 µg/mL [3]?
Answer: 7.81%

Question: Which melting point does the source give for `COc1cc2ncnc(Oc3cc(C(C)(C)C)[se]c3C(N)=O)c2cc1OC` [Compound 29, 3-(6,7-dimethoxyquinazolin-4-yloxy)-5-tert-butylselenophene-2-carboxamide] here?
Answer: 220 to 224 °C

Question: And the inhibition at 10 µg/mL [1]?
Answer: 15.6%

Question: What about the inhibition at 10 µg/mL [2] of the same molecule?
Answer: 44.6%

Question: And the inhibition at 10 µg/mL [3]?
Answer: 43%

Question: Which results are given for `COc1cc2nc(CN(C)C)nc(Nc3cc(C(C)(C)C)[se]c3C(N)=O)c2cc1OC` [Compound 27]?
Answer: IC50 [4]: 2.34 µM; potency compared to Iressa, HepG2 [4]: equally more potent than Iressa; IC50 [5]: 3.09 µM; potency compared to Iressa, MDA-MB-231 [5]: equally more potent than Iressa; IC50 [6]: 2.88 µM; potency compared to Iressa, HeLa [6]: equally more potent than Iressa; inhibition of FGF induced capillary-like endothelial tube formation [7]: inhibits capillary-like endothelial tube formation in vitro; also recorded: inhibited FGF induced capillary formation in a dose dependent manner; inhibition of FGF induced capillary-like endothelial tube formation ([7]; listed as compound 27): significantly inhibiting endothelial capillary formation in a dose dependent manner; IC50 [1]: 3.58 µM; IC50 [2]: 2.86 µM; IC50 [3]: 2.97 µM

Question: With `CC(C)(C)c1cc(Nc2ncnc3oc(-c4ccccc4)cc23)c(C(N)=O)[se]1` [Compound 15, 3-(6-phenylfuro[2,3-d]pyrimidin-4-ylamino)-5-tert-butylselenophene-2-carboxamide] as the molecule, how does the melting point read?
Answer: 280 to 282 °C

Question: And the inhibition at 10 µg/mL [1]?
Answer: 5.87%

Question: What about the inhibition at 10 µg/mL [2] of the same molecule?
Answer: 25.4%

Question: What about the inhibition at 10 µg/mL [3] of the same molecule?
Answer: 3.44%

Question: With `COc1cc2ncnc(Nc3cc(C(N)=O)[se]c3C)c2cc1OCCCN1CCOCC1` (as salt: HCl) [Compound 11, 4-(6-(3-morpholinopropoxy)-7-methoxyquinazolin-4-ylamino)-5-methylselenophene-2-carboxamide] as the molecule, how does the melting point read?
Answer: 252 to 254 °C

Question: Which melting point does the source give for `CC(C)(C)c1cc(Nc2ncnc3cc(C(C)(C)C)[se]c23)c(C(N)=O)[se]1` (as salt: HCl) [Compound 18, 3-(6-tert-butylselenopheno[3,2-d]pyrimidin-4-ylamino)-5-tert-butylselenophene-2-carboxamide] here?
Answer: 212 to 214 °C

Question: With `COc1cc2ncnc(Nc3cc(-c4ccccc4)[se]c3C(N)=O)c2cc1OCCCN1CCOCC1` (as salt: HCl) [Compound 7, 3-(6-(3-morpholinopropoxy)-7-methoxyquinazolin-4-ylamino)-5-phenyl-selenophene-2-carboxamide] as the molecule, how does the melting point read?
Answer: 266 to 270 °C

Question: For `COc1cc2ncnc(N(CCCl)c3cc(C(C)(C)C)[se]c3C(N)=O)c2cc1OCCCN1CCOCC1` (as salt: HCl) [Compound 23, 3-(N-(6-(3-morpholinopropoxy)-7-methoxyquinazolin-4-yl)-N-(2-chloroethyl)amino)-5-tert-butylselenophene-2-carboxamide], which melting point is on record?
Answer: 190 to 192 °C

Question: Which melting point does the source give for `COc1cc2ncnc(N(C)c3cc(C(C)(C)C)[se]c3C(N)=O)c2cc1OCCCN1CCOCC1` (as salt: HCl) [Compound 22, 3-(N-(6-(3-morpholinopropoxy)-7-methoxyquinazolin-4-yl)-N-methylamino)-5-tert-butylselenophene-2-carboxamide] here?
Answer: 254 to 256 °C

Question: Which melting point does the source give for `CCc1c(C)[se]c2ncnc(Nc3cc(C(C)(C)C)[se]c3C(N)=O)c12` (as salt: HCl) [Compound 19, 3-(5-ethyl-6-methylselenopheno[2,3-d]pyrimidin-4-ylamino)-5-tert-butylselenophene-2-carboxamide] here?
Answer: 278 to 280 °C

Question: Which melting point does the source give for `CCc1c(C)sc2ncnc(Nc3cc(C(C)(C)C)[se]c3C(N)=O)c12` (as salt: HCl) [Compound 13, 3-(5-ethyl-6-methylthiopheno[2,3-d]pyrimidin-4-ylamino)-5-tert-butylselenophene-2-carboxamide] here?
Answer: 258 to 260 °C

Question: With `COc1cc2c(Nc3cc(C(C)(C)C)[se]c3C(N)=O)ncnc2cc1OCCCN1CCOCC1` (as salt: HCl) [Compound 5, 3-(7-(3-morpholinopropoxy)-6-methoxyquinazolin-4-ylamino)-5-tert-butylselenophene-2-carboxamide] as the molecule, how does the melting point read?
Answer: 262 to 264 °C

Question: For `COc1cc2nc(-c3ccc(Cl)cc3)nc(Nc3cc(C(C)(C)C)[se]c3C(N)=O)c2cc1OC` [Compound 28, 3-(2-(4-chlorophenyl)-6,7-dimethoxyquinazolin-4-ylamino)-5-tert-butylselenophene-2-carboxamide], which melting point is on record?
Answer: 268 to 270 °C

Question: What about the inhibition at 10 µg/mL [1] of the same molecule?
Answer: 9%

Question: What about the inhibition at 10 µg/mL [2] of the same molecule?
Answer: 2.69%

Question: And the inhibition at 10 µg/mL [3]?
Answer: 10.4%

Question: Which melting point does the source give for `COc1cc2ncnc(Nc3cc(C(C)(C)C)[se]c3C(N)=O)c2cc1OCCCN1CCOCC1` (as salt: HCl) [Compound 3, 3-(6-(3-morpholinopropoxy)-7-methoxyquinazolin-4-ylamino)-5-tert-butylselenophene-2-carboxamide] here?
Answer: 262 to 264 °C

Question: For `COc1cc2ncnc(Nc3cc(C(C)(C)C)[se]c3C(N)=O)c2cc1OC` [Compound 1, 3-(6,7-dimethoxyquinazolin-4-ylamino)-5-tert-butylselenophene-2-carboxamide], which melting point is on record?
Answer: 234 to 238 °C

Question: And the IC50 [1]?
Answer: 9.08 µM

Question: And the “potency in vitro compared to gefitinib (Iressa), A549” value ([1]; ratio of IC50 values)?
Answer: approximately two times

Question: What about the IC50 [2] of the same molecule?
Answer: 5.12 µM

Question: What about the “potency in vitro compared to gefitinib (Iressa), HT29” value ([2]; ratio of IC50 values) of the same molecule?
Answer: several times better potency

Question: What about the IC50 [3] of the same molecule?
Answer: 3.6 µM

Question: What about the “potency in vitro compared to gefitinib (Iressa), DU145” value ([3]; ratio of IC50 values) of the same molecule?
Answer: several times better potency

Question: For `COc1cc2ncnc(N(C)c3cc(C(C)(C)C)[se]c3C(N)=O)c2cc1OC` [Compound 21, 3-(N-(6,7-dimethoxyquinazolin-4-yl)-N-methylamino)-5-tert-butylseleno-phene-2-carboxamide], which IC50 [4] is on record?
Answer: 2.33 µM

Question: What about the “potency compared to Iressa, HepG2” value [4] of the same molecule?
Answer: fifteen

Question: And the IC50 [5]?
Answer: 2.86 µM

Question: And the “potency compared to Iressa, MDA-MB-231” value [5]?
Answer: sixteen

Question: And the IC50 [6]?
Answer: 2.97 µM

Question: What about the “potency compared to Iressa, HeLa” value [6] of the same molecule?
Answer: seventeen times

Question: And the melting point?
Answer: 256 to 258 °C

Question: And the IC50 [1]?
Answer: 3.59 µM

Question: What about the IC50 [2] of the same molecule?
Answer: 3.88 µM

Question: What about the IC50 [3] of the same molecule?
Answer: 3.95 µM

Question: What does the source list for `COC(=O)c1cc(Nc2ncnc3[nH]c(C)c(C)c23)c(C)[se]1` [Compound 17, methyl 4-(5,6-dimethyl-7H-pyrrolo[2,3-d]pyrimidin-4-ylamino)-5-methylselenophene-2-carboxylate]?
Answer: melting point: 238 to 240 °C; inhibition at 10 µg/mL [1]: 2.66%; inhibition at 10 µg/mL [2]: 4.54%; inhibition at 10 µg/mL [3]: 7.62%

Question: With `CC(C)(C)c1cc2c(Nc3cc(C(C)(C)C)[se]c3C(N)=O)ncnc2o1` [Compound 16, 3-(6-tert-butylfuro[2,3-d]pyrimidin-4-ylamino)-5-tert-butylselenophene-2-carboxamide] as the molecule, how does the melting point read?
Answer: 288 to 290 °C

Question: And the inhibition at 10 µg/mL [1]?
Answer: 1.6%

Question: And the inhibition at 10 µg/mL [2]?
Answer: 20.3%

Question: And the inhibition at 10 µg/mL [3]?
Answer: 2.81%
